# Results as given in patent publication US20230392127A1, “METHOD FOR CONSTRUCTION OF ATOPIC DERMATITIS MODEL BY USING PLURIPOTENT STEM CELL-DERIVED SKIN ORGANOID” (KANGSTEM BIOTECH CO., LTD., priority 2020, published 2023).
# Columns and labels:
# [1] = system: cartilage expression markers COL2A, ACAN, and SOX9; experiment: Real-time PCR of cartilage expression markers in skin organoids; assay type: cell-based, human; settings: skin organoids on day 69; real-time PCR normalized to GAPDH; CHIR(+) vs CHIR(-); FIG. 8
# Protocol: As a method for evaluating gene expression, cells were lysed and genes were extracted using a lysis buffer, and gene expression was quantified using RT-PCR. To evaluate gene expression, total RNA was isolated with an RNeasy kit (Qiagen, Cat. No. 74106) and cDNA was prepared according to the manufacturer's instructions using Reverse Transcriptase III (Thermo Fisher Scientific, Cat. No. 4368814). Real-time PCR was performed using SRBR Green Master Mix (Thermo Fisher Scientific, Cat. No. A25776) and detection was performed using a Step One Plus Real-time PCR system (Applied Biosystems). The expression of genes was normalized to the expression of glyceraldehyde-3-phosphate dehydrogenase (GAPDH). The degree of gene expression was evaluated using primers specific for COL2A, ACAN, and SOX9 mRNAs.
# [2] = system: induced pluripotent stem cell-derived skin organoids; experiment: Skin organoid size and cartilage formation after Wnt signaling pathway activation (brightfield images); assay type: cell-based, human
# Protocol: A skin organoid was cultured based on the literature disclosing an existing skin organoid differentiation protocol using induced pluripotent stem cell lines (Lee, J. et al. Hair-bearing human skin generated entirely from pluripotent stem cells. Nature 582, 399-404(2020)). The induced pluripotent stem cell colony was separated into small cell populations using ReLeSR™ (Stem Cell Technology) and then separated into single cells using Accutase (ThermoFisher). For embryoid body formation, 1000 single cells were aliquoted into each well of a U-bottom low-attachment 96-well plate (Corning). Essential 8 (Gibco) supplemented with Y-27632 (20 μM) was used as an embryoid body culture solution. The single cells were cultured for 2 days until the embryoid body grew to a size of 300 to 500 μm. On day 2 of differentiation, the formed embryoid bodies were transferred to a culture solution including 2% Matrigel (Matrigel; Corning), 10 μM SB431542 (Tocris), 4 ng/ml FGF2 (PeproTech) and 15 ng/ml BMP4 (PeproTech) for non-neural ectoderm differentiation induction. […] The skin organoid to be analyzed was photographed with an EVOS XL Core brightfield system microscope (Thermo Fisher) at ×40 magnification. […]
smiles,measurement,setting,value
Cc1c[nH]c(-c2cnc(NCCNc3ccc(C#N)cn3)nc2-c2ccc(Cl)cc2Cl)n1 [CHIR-99021],gene expression level of cartilage expression marker ACAN,[1],remarkably reduced
same,gene expression level of cartilage expression marker COL2A,[1],remarkably reduced
same,gene expression level of cartilage expression marker SOX9,[1],remarkably reduced
same,cartilage formation in skin organoids,"[2]; 0.5 to 8 μM added on day 6, organoids on days 38, 65 and 85, vs CHIR(-), FIG. 7",cartilage was not formed
same,sizes of the organoids,"[2]; 0.5 to 8 μM added to culture solution on day 6 of differentiation, compared to skin organoids generated by the existing method (CHIR(-)), FIGS. 6 and 7",remarkably increased
